Molecular target: T1, Peptidyl-glycine alpha-amidating monooxygenase (Homo sapiens) (UniProt P19021)
T1 sequence (whole entry): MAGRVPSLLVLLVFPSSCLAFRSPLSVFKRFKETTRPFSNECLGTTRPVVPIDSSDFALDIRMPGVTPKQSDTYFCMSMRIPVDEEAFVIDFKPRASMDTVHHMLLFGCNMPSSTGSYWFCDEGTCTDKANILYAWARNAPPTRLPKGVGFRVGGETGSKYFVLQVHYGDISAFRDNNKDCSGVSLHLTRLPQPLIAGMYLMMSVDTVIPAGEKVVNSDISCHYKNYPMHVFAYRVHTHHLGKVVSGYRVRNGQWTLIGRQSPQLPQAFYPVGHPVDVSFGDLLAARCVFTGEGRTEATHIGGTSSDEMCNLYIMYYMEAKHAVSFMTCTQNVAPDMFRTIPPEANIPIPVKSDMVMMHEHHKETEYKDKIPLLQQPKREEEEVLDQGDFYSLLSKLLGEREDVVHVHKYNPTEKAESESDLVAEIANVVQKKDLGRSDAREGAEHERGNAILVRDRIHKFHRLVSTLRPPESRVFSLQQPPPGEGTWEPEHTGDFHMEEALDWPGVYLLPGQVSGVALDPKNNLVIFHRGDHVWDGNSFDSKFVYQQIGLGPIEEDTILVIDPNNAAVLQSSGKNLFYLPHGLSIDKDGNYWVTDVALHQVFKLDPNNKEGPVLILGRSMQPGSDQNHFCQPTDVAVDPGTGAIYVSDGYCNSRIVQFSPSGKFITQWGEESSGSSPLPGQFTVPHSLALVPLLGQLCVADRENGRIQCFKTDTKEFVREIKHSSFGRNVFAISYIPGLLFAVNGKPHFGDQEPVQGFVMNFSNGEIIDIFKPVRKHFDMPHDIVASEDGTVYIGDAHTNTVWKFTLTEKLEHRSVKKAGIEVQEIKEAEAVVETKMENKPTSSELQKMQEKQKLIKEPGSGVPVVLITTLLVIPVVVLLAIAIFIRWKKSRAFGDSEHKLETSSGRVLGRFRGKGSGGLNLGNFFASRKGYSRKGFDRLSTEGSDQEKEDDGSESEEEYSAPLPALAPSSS
Assay: Kinetic constant for inhibition of peptidylglycine alpha hydroxylating monooxygenase (PHM) was determined
Conditions: Equus caballus

| Compound | K inact |
| --- | --- |
| O=C(O)CS/C=C/c1ccccc1 | 0.2 min⁻¹ |
| O=C(O)CSC#Cc1ccccc1 | 0.06 min⁻¹ |
